Measurements taken from US5571524A, “Agent for curing ischemic myocardial disease” (Unitika Ltd., priority 1994, dated 1996).

What was measured:
[1] = Japanese Laid-Open Patent Application 5-286861; cited from earlier work
human platelet = conditions: Leuthje and Ogiluie 1984; cited from earlier work
Mongrel dogs [2] = assay: Coronary blood flow increase effect, nonischemic condition; format: in vivo; conditions: for Coronary blood flow: N = 1 - 2; for coronary blood flow increase: nonischemic
Experimental: (§1) Mongrel dogs weighing 18-22 kg were anesthetized with pentobarbital sodium (30 mg/kg). The trachea was intubated, and the dog was ventilated with room air with oxygen. The chest was opened through the left fifth intercostal space, and the heart was suspended in a pericardial cradle. The left anterior descending coronary artery was cannulated and perfused with blood via the carotid artery through an extracorporeal bypass tube after heparinization (500 units/kg). Coronary blood flow (CBF) was measured with an electromagnetic flow probe attached to the bypass tube, and coronary perfusion pressure (CPP) was monitored at the tip of the coronary arterial cannula. A small, short collecting tube was cannulated into a small coronary vein near the center of the perfused area to sample coronary venous blood. The drained venous blood was collected in a reservoir placed at the level of the left atrium. A high fidelity of left ventricular pressure and its first derivative were measured by a micromanometer (model P-5, Konigsberg Instruments, Inc., Pasadena, Calif.) placed in the left ventricular cavity through the apex. A pair of ultrasonic crystals was placed in the center of the perfused area about 1 cm apart to measure myocardial segment length with an ultrasonic dimension gauge (5 MHz, Schuessler, Cardiff by the Sea, Calif.). End-diastolic length (EDL) was determined at the R wave of the electrocardiogram, and end-systolic length (ESL) was determined at the minimal dP/dt. Fractional shortening was calculated by (EDL-ESL)/EDL as an index of myocardial contractility of the perfused area.
After stabilization, a physiological saline solution […], with the dosage thereof increased to 0.5, 1, 2, 4 and 8 μg/kg/min, and the changes in coronary blood flow were measured in order to assess the coronary blood flow increase effect of Ap4A.
8-sulfophenyltheophylline (hereinafter referred to as 8-SPT) serving as adenosine P1 receptor antagonist with a dose of 25 μg/kg/min was tested.
The above test was also repeated by replacing 8-SPT with N^G -nitro-L-arginine methyl ester (hereinafter referred to as L-NAME) serving as an endothelial-cell-induced nitric oxide (NO) synthesis inhibitor with a dose of 3 μg/kg/min(ic).
The above test was then repeated using 8-SPT and L-NAME in combination.

Mongrel dogs [3] = assay: Myocardial oxygen consumption (MVO2), nonischemic condition; format: in vivo; conditions: for Myocardial oxygen consumption: control 9.1
Experimental: as §1
After stabilization, a physiological saline solution prepared by dissolving Ap4A.4Na in physiological saline was continuously infused into the coronary artery, with the dosage thereof increased to 0.5, 1, 2, 4 and 8 μg/kg/min, and the changes in coronary blood flow were measured in order to assess the coronary blood flow increase effect of Ap4A.
Changes in myocardial oxygen consumption (MVO2) (ml/100 g/min) caused by the administration of Ap4A were measured as shown in TABLE 2.

Mongrel dogs [4] = assay: Amelioration of myocardial ischemia: coronary blood flow, fractional shortening and perfusion pressure during factitious 1/3 blood flow; format: in vivo; conditions: for Myocardial fractional shortening / Coronary blood flow / Coronary perfusion pressure: ischemia (1/3 blood flow), N = 2
Experimental: as §1
(§2) After stabilization, CPP was decreased with partial occlusion of the bypass tube to the left anterior descending coronary artery such that CBF decreased to one third of the control flow. The low CPP was maintained during this test.
(§3) Blood sampling from coronary veins and coronary arteries was conducted. Then the intracoronary administration of Ap4A was stopped. The lowered coronary perfusion pressure was further maintained for 10 minutes.
(§4) The above test was repeated by replacing Ap4A with adenosine with the dosage thereof being changed to 4, 8 and 16 μg/kg/min.

[5] = Japanese Laid-Open Patent Application 3-167126; cited from earlier work
coronary vessels = conditions: at normal time; cited from earlier work
[6] = cited from earlier work
[7] = test system: rabbit mesenteric arteries; conditions: R. Busse et al. 1988; cited from earlier work
Mongrel dogs [8] = assay: Lactate extraction ratio and pH of venous blood during ischemia; format: in vivo; conditions: ischemia (1/3 blood flow), N = 2
Experimental: as §1
Namely, the lactate extraction ratio was obtained by coronary arteriovenous difference in lactate concentration multiplied by 100 and divided by arterial lactate concentration.
as §2, §3, §4
As mentioned previously, in the above-mentioned experimental systems, lactate extraction ratio and pH of venous blood were measured at the time of the intracoronary administration of Ap4A and also at the time of the intracoronary administration of adenosine.

Nc1ncnc2c1ncn2[C@@H]1O[C@H](COP(=O)(O)OP(=O)(O)OP(=O)(O)OP(=O)(O)OC[C@H]2O[C@@H](n3cnc4c(N)ncnc43)[C@H](O)[C@@H]2O)[C@@H](O)[C@H]1O [Ap4A, Diadenosine 5',5"'-p^1, p^4 -tetraphosphate]
deliberated hypotensive effect [1]: deliberated hypotensive effect | ADP-induced human platelet aggregation inhibitory effect (human platelet): ADP-induced human platelet aggregation inhibitory effect | coronary blood flow increase effect of Ap4A in presence of 8-SPT (Mongrel dogs [2]; 8-SPT 25 μg/kg/min): partially inhibited | coronary blood flow increase effect of Ap4A in presence of 8-SPT and L-NAME (Mongrel dogs [2]; 8-SPT and L-NAME in combination): not completely inhibited | coronary blood flow increase effect of Ap4A in presence of L-NAME (Mongrel dogs [2]; L-NAME 3 μg/kg/min (ic)): only slightly inhibited | Coronary blood flow (Mongrel dogs [2]; Untreated (no inhibitor), Ap4A 0.5 μg/kg/min intracoronary, control 93.7): 104.1 ml/100 g/min | Coronary blood flow (Mongrel dogs [2]; Untreated (no inhibitor), Ap4A 1 μg/kg/min intracoronary, control 93.7): 122.2 ml/100 g/min | Coronary blood flow (Mongrel dogs [2]; Untreated (no inhibitor), Ap4A 2 μg/kg/min intracoronary, control 93.7): 137.6 ml/100 g/min | Coronary blood flow (Mongrel dogs [2]; Untreated (no inhibitor), Ap4A 4 μg/kg/min intracoronary, control 93.7): 158.9 ml/100 g/min | Coronary blood flow (Mongrel dogs [2]; Untreated (no inhibitor), Ap4A 8 μg/kg/min intracoronary, control 93.7): 202.2 ml/100 g/min | coronary blood flow increase (Mongrel dogs [2]; intracoronary 0.5 to 8 μg/kg/min): significantly increasing the coronary blood flow dose-dependently | coronary blood flow increase (Mongrel dogs [2]; intravenous administration): This effect was also observed | Coronary blood flow (Mongrel dogs [2]; with 8-SPT 25 μg/kg/min, Ap4A 0.5 μg/kg/min, control 97.0): 98.6 ml/100 g/min | Coronary blood flow (Mongrel dogs [2]; with 8-SPT 25 μg/kg/min, Ap4A 1 μg/kg/min, control 97.0): 96.8 ml/100 g/min | Coronary blood flow (Mongrel dogs [2]; with 8-SPT 25 μg/kg/min, Ap4A 2 μg/kg/min, control 97.0): 106.1 ml/100 g/min | Coronary blood flow (Mongrel dogs [2]; with 8-SPT 25 μg/kg/min, Ap4A 4 μg/kg/min, control 97.0): 117.0 ml/100 g/min | Coronary blood flow (Mongrel dogs [2]; with 8-SPT 25 μg/kg/min, Ap4A 8 μg/kg/min, control 97.0): 124.5 ml/100 g/min | Coronary blood flow (Mongrel dogs [2]; with 8-SPT + L-NAME, Ap4A 0.5 μg/kg/min, control 97.1): 97.1 ml/100 g/min | Coronary blood flow (Mongrel dogs [2]; with 8-SPT + L-NAME, Ap4A 1 μg/kg/min, control 97.1): 108.6 ml/100 g/min | Coronary blood flow (Mongrel dogs [2]; with 8-SPT + L-NAME, Ap4A 2 μg/kg/min, control 97.1): 102.9 ml/100 g/min | Coronary blood flow (Mongrel dogs [2]; with 8-SPT + L-NAME, Ap4A 4 μg/kg/min, control 97.1): 114.3 ml/100 g/min | Coronary blood flow (Mongrel dogs [2]; with 8-SPT + L-NAME, Ap4A 8 μg/kg/min, control 97.1): 120.0 ml/100 g/min | Coronary blood flow (Mongrel dogs [2]; with L-NAME 3 μg/kg/min (ic), Ap4A 0.5 μg/kg/min, control 90.3): 100.0 ml/100 g/min | Coronary blood flow (Mongrel dogs [2]; with L-NAME 3 μg/kg/min (ic), Ap4A 1 μg/kg/min, control 90.3): 119.4 ml/100 g/min | Coronary blood flow (Mongrel dogs [2]; with L-NAME 3 μg/kg/min (ic), Ap4A 2 μg/kg/min, control 90.3): 122.6 ml/100 g/min | Coronary blood flow (Mongrel dogs [2]; with L-NAME 3 μg/kg/min (ic), Ap4A 4 μg/kg/min, control 90.3): 151.6 ml/100 g/min | Coronary blood flow (Mongrel dogs [2]; with L-NAME 3 μg/kg/min (ic), Ap4A 8 μg/kg/min, control 90.3): 219.4 ml/100 g/min | Myocardial oxygen consumption (Mongrel dogs [3]; Ap4A 0.5 μg/kg/min): 9.9 ml/100 g/min | Myocardial oxygen consumption (Mongrel dogs [3]; Ap4A 1 μg/kg/min): 9.0 ml/100 g/min | Myocardial oxygen consumption (Mongrel dogs [3]; Ap4A 2 μg/kg/min): 8.7 ml/100 g/min | Myocardial oxygen consumption (Mongrel dogs [3]; Ap4A 4 μg/kg/min): 8.7 ml/100 g/min | Myocardial oxygen consumption (Mongrel dogs [3]; Ap4A 8 μg/kg/min): 9.5 ml/100 g/min | myocardial oxygen consumption (MVO2) change (Mongrel dogs [3]; Ap4A 0.5 to 8 μg/kg/min): neither largely increased nor decreased | Myocardial fractional shortening (Mongrel dogs [4]; Ap4A 4 μg/kg/min intracoronary 10 minutes, control 24.7, 1/3 control 4.9): 11.5% | Coronary blood flow (Mongrel dogs [4]; Ap4A 4 μg/kg/min intracoronary 10 minutes, control 90.5, 1/3 control 30.4): 48.2 ml/100 g/min | Coronary perfusion pressure (Mongrel dogs [4]; Ap4A 4 μg/kg/min intracoronary 10 minutes, control 104, 1/3 control 54): 54 mmHg | Myocardial fractional shortening (Mongrel dogs [4]; Ap4A administration stopped, 1/3 control 4.9): 4.8% | Coronary blood flow (Mongrel dogs [4]; Ap4A administration stopped, 1/3 control 30.4): 31.9 ml/100 g/min | Coronary perfusion pressure (Mongrel dogs [4]; Ap4A administration stopped, 1/3 control 54): 54 mmHg | prevention of decrease in myocardial fractional shortening (Mongrel dogs [4]; ischemia, Ap4A 4 μg/kg/min): significantly preventing a decrease in myocardial fractional shortening | amelioration effect on myocardial ischemia (Mongrel dogs [4]; mongrel dogs in a state of excessive ischemia): noticeable amelioration effect on myocardial ischemia | anti-arrhythmia effect [5]: anti-arrhythmia effect | vasodilating effect on coronary vessels (coronary vessels): vasodilating effect on coronary vessels at normal time | degradation in vivo [6]: degraded in vivo to ATP and AMP, which are eventually degraded to adenosine | vasodilating effect on rabbit mesenteric arteries [7]: vasodilating effect on rabbit mesenteric arteries | pH of venous blood (Mongrel dogs [8]; Ap4A 4 μg/kg/min intracoronary, control 7.39, 1/3 control 7.23): 7.29 | Lactate extraction ratio (Mongrel dogs [8]; Ap4A 4 μg/kg/min intracoronary, control 28.3, 1/3 control -39.8): -15.8% | pH of venous blood (Mongrel dogs [8]; Ap4A administration stopped, 1/3 control 7.23): 7.19 | Lactate extraction ratio (Mongrel dogs [8]; Ap4A administration stopped, 1/3 control -39.8): -48.6%
